Experimental data from article PMC5578373, “Inhibitory Kappa B Kinase α (IKKα) Inhibitors That Recapitulate Their Selectivity in Cells against Isoform-Related Biomarkers” (Journal of Medicinal Chemistry, 2017).
Entries after “also recorded” stand apart in the source; their conditions may differ. Where two headings read alike, the source gives them in different places.

Key:
[1] = test system: IKKα-regulated NF-κB transcriptional activation in IKKβ−/− MEFs; experiment: IL-1β-stimulated NF-κB-luciferase transcriptional activity in IKKβ knockout MEFs; format: cell-based, mouse
Description: To provide further evidence for cellular activity, mouse embryonic fibroblasts lacking the IKKβ kinase subunit were utilized to investigate the potency of both compounds against agonist-stimulated IKKα-regulated NF-κB transcriptional activation. Cells were infected with an adenovirus encoding an NF-κB-luciferase promoter gene. NF-κB transcriptional activity driven by IKKα was stimulated specifically using IL-1β,[41] and the ability of the compounds to inhibit this response was assessed. […] As IKKα plays a lesser role in the canonical NF-κB cascade,[42] particularly the rapid and transient stimulated degradation of IκBα, selective IKKα inhibitors should not affect TNF-α induced IκBα degradation and p65 phosphorylation.
(§1) U2OS cells were cultured with McCoy’s 5A modified medium and MEF were cultured with DEME medium containing 10% (v/v) FCS and medium was changed every 2 d thereafter until cells became confluent. Cells were incubated at 37 °C in humidified air with 5% CO2 and rendered quiescent by serum deprivation for 24 h prior to stimulation in serum-free medium.
An adenoviral vector encoding NFκB-luciferase (Adv.NFκB-Luc) was purchased from Vector Biolabs (University of Pennsylvania, Philadelphia, US). Large-scale production of high titer recombinant adenovirus was performed by routine methods.[47] IKKβ knockout mouse embryonic fibroblasts (MEFs; kindly provided by Prof. I. Verma, UCSD, USA) were counted when approximately 60–70% confluent in T75 cm^2 flasks and infected with adenovirus up to 300 pfu/cell^–1 for 24 h in 10% DMEM. Cells were then lifted from the flasks and plated into 96-well clear bottom, black luciferase plates and allowed to settle for 24 h before serum starved overnight. Cells were then stimulated with the appropriate agonists for the indicated times and reactions terminated by addition of lysis buffer containing 0.2 mM luciferin substrate. Relative light units (RLU) were measured using a Trilux microbeta counter (luminometer).

[2] = test system: IKKβ-dependent p65 (Ser536) phosphorylation in U2OS cells; experiment: TNFα-induced p65 (Ser536) phosphorylation in U2OS cells, Western blot; format: cell-based, human; conditions: highest concentration 100 μM, TNF-α (10 ng/mL) 30 min
Description: (§2) Two IKKβ-dependent readouts were selected to assess selectivity over IKKβ. First, TNFα stimulates IκBα degradation through activation of IKKβ and if IKKβ is inhibited, then a band corresponding to the IκBα protein should be evident by Western analysis. Second, IKKβ phosphorylates p65 on Ser536, which can also be assessed by Western blot analysis. Only at the highest concentration (100 μM) of 48 was IκBα degradation and p65 (Ser536) phosphorylation inhibited (Figure 9b). Even at this high concentration, these effects were not apparent following pretreatment with 47 (Figure 10b).
(§3) Figure 9 Effect of compound 48 on (a) FCS-stimulated noncanonical and (b) TNF-α-induced canonical NF-kB activation in U2OS cells. […] Whole cell lysate were prepared, separated by SDS-PAGE, and assessed for (a) inhibition of p100 phosphorylation (Ser866/870) and (b) IkB-α and p-p65 (Ser536) status. […]
as §3, with “10” for “9”, “47” for “48”
(§4) Whole cell lysates were prepared from U2OS and status of IκBα, p65, p-p65 (Ser536), and p-p100 (Ser 866/870) assessed by Western blotting as described in Mackenzie et al. (2007).[46]

[3] = test system: IKKβ-dependent IκBα degradation in U2OS cells; experiment: TNFα-induced IκBα degradation in U2OS cells, Western blot; format: cell-based, human; conditions: highest concentration 100 μM, TNF-α (10 ng/mL) 30 min
Description: as §2, §3
as §3, with “10” for “9”, “47” for “48”
as §4

[4] = test system: IKKα-driven p100 phosphorylation in U2OS cells; experiment: FCS-stimulated p100 phosphorylation (Ser866/870) in U2OS cells, Western blot; format: cell-based, human; conditions: 1 h pretreatment, FCS (10%) for 4 h, blots quantified, read-out: IC50 for inhibition of p100 phosphorylation
Description: as §2
(§5) Figure 9 Effect of compound 48 on (a) FCS-stimulated noncanonical and (b) TNF-α-induced canonical NF-kB activation in U2OS cells. Cells were pretreated with 48 1 h prior to stimulation with FCS (10%) for 4 h or TNF-α (10 ng/mL) for 30 min. Whole cell lysate were prepared, separated by SDS-PAGE, and assessed for (a) inhibition of p100 phosphorylation (Ser866/870) and (b) IkB-α and p-p65 (Ser536) status. […] The results are representative of three independent experiments.
as §5, with “10” for “9”, “47” for “48”
as §1, §4

IC50 [4]: 19.1 µM
IC50 ([4]; Homo sapiens, U2OS): 13.9 µM
SMILES: N#Cc1c[nH]c2nc(N)nc(-c3ccc(CO)cc3)c12 [Compound 47, 2-Amino-4-(4-hydroxymethyl)phenyl-7H-pyrrolo[2,3-d]pyrimidine-5-carbonitrile]
% stimulation ([1]; 100 μM compound, 1 h pretreatment, IL-1β (10 ng/mL) 6 h, IL-1β + DMSO = 100, mean ± SEM): –40.9 ± 4.6 %
inhibition of NF-κB transcriptional activity ([1]; maximal concentrations of 50–100 μM): approximately 81%
% stim ([1]; maximal concentrations of 50–100 μM, Il-1β+DMSO = 100%): 18.79 ± 7.2%
inhibition of TNFα-stimulated p65 (Ser536) phosphorylation [2]: not apparent; also recorded: did not affect
inhibition of TNFα-stimulated IκBα degradation [3]: not apparent; also recorded: did not affect
